Data set [1] in a line: Spectroscopic properties (absorbance, emission, quantum yield). To be noted: protected form, closed lactone conformation. The data set is classed as physicochemical. How it is done: (§1) Millipore water was used to prepare all aqueous solutions. All spectroscopic measurements were performed in 20 mM HEPES buffer, pH 7.4. Fluorescence spectra were recorded on a Photon Technology International Quanta Master 4 L-format scanning spectrofluorometer (Lawrenceville, N.J.) equipped with an LPS-220B 75-W xenon lamp and power supply, A-1010B lamp housing with an integrated igniter, switchable 814 photon-counting/analog photomultiplier detection unit, and MD5020 motor driver. Samples for emission measurements were contained in 1-cm×0.1-cm quartz (1.5 mL volume, Starna, Atascadero, Calif.). Absorption spectra were recorded using a Varian Cary 50 spectrophotometer (Walnut Creek, Calif.).
FIG. 1. Absorbance spectra of (a) 10 μM SF1 (b) 10 μM SF2, and 10 μM of rhodamine products (c) tert-butoxycarbonyl-rhodamine 110 and (d) morpholinourea-rhodamine 110.
Quantum yields were determined using fluorescein as a standard according to a published method.^S3 For each compound and fluorescein, the absorbance spectra were measured within an absorbance range of 0.01 to 0.1. The quantum yield was calculated according to the equation: Φsample=Φstandard (Gradsample/Gradstandard)[…], where Φ is the quantum yield, Φstandard=0.95 in 0.1 M NaOH, Grad is the slope of the plot of […], and η is the refractive index of the solvent.

The subject of data set [2] is HEK293T cells. As to the kind of experiment: Confocal imaging of H2S detection in live HEK293T cells. The data set is classed as cell-based. To be noted: for intracellular fluorescence intensity after NaSH: 5 μM probe 30 min, then 250 μM NaSH 30 min, excitation 488 nm; for background response in untreated cells: absence of exogenous H2S; for cell viability over the course of the experiments: bright field images co-localized with Hoescht nuclear staining. How it is done:
HEK 293T cells were maintained in exponential growth as a monolayer in Dulbecco's Modified Eagle Medium (DMEM, Invitrogen) supplemented with 10% fetal bovine serum (FBS, Hyclone), and incubated at 37° C. in 5% CO2. One or two days before imaging, the cells were passaged and plated in phenol red-free medium on 4-well Lab-Tek borosilicate chambered coverglass slides (Nunc) and allowed to grow to 50-70% confluence. For all experiments, solutions of SF1 and SF2 were prepared in DMF (5 mM) and diluted into DMEM at the desired working concentrations (5 μM). NaSH was delivered from a stock solution of 25 mM in degassed (by bubbling N2 for ˜30 min) Dulbecco's Phosphate Buffered Saline (DPBS). Cells were treated with SF1 or SF2 for one hour, with NaSH (50-250 μM) or blank control added for the final 30 minutes. Images were collected at 30 min after NaSH addition. For nuclear imaging studies, cells were incubated with 1 μM Hoechst 33342 at 37° C. for 30 min prior to imaging.
Confocal Imaging Experiments. Confocal fluorescence imaging studies were performed with a Zeiss laser scanning microscope 710 with a 40× water objective lens, with Zen 2009 software (Carl Zeiss). SF1 and SF2 were excited using a 488 nm Ar laser, and emission collected using a META detector between 500 and 650 nm. Hoechst 33342 was excited with a 405 nm diode laser, and emission collected using a META detector between 450 and 500 nm. The cells were imaged at 37° C. and 5% CO2 throughout the course of the experiment. Image analysis was performed using ImageJ (National Institute of Health).
FIG. 6. Confocal images of H2S detection in live HEK293T cells using SF1 and SF2. (a) HEK293T cells incubated with SF1 for 60 min at 37° C. (b) HEK293T cells incubated with SF1 for 60 min at 37° C. with 250 μM NaSH added for the final 30 min. (c) Brightfield images of the same field of cells in (b) overlaid with images of 1 μM Hoescht stain at 37° C. (d) HEK293T cells incubated with SF2 for 60 min at 37° C. (e) HEK293T cells incubated with SF2 for 60 min at 37° C. with 250 μM NaSH added for the final 30 min. (f) Brightfield images of the same field of cells in (e) overlaid with images of 1 μM Hoescht stain at 37° C. Scale bars represent […].
FIG. 7. Mean fluorescence intensity of confocal images of H2S detected in live HEK293T cells treated with 0, 50, 100, and 250 μM H2S. (a) HEK293T cells were incubated with SF1 for 60 min at 37° C. with the indicated amount of H2S added for the final 30 min. (b) HEK293T cells were incubated with SF2 for 60 min at 37° C. with the indicated amount of H2S added for the final 30 min. Data represent the mean fluorescence intensity of distinct fields (n=4). Error bars are ±s.e.m.

Data set [3] can be described thus: Fluorescence response of probe to H2S (NaSH) in HEPES buffer. The note with it: 10 μM probe, 100 μM NaSH, after one hour of reaction. As to the method:
as §1
A 10 μM solution of SF1 or SF2 in 20 mM HEPES buffered to pH 7.4 was prepared from a 5 mM stock solution of SF1 or SF2 in DMF in a 1.5 mL eppendorf tube. 10 μL of 10 mM stock solution of NaSH in degassed (by bubbling N2 for ˜30 min) 20 mM HEPES buffered at pH 7.4 was added (for a final concentration of 100 μM) and the mixture was vortexed for 10 s and then transferred to a cuvette. Emission spectra (λex=488 nm, λex=498-700 nm) were collected at 10, 20, 30, 40, 50, and 60 min. The spectrum at t=0 was acquired from a 10 μM solution of SF1 or SF2 without the addition of NaSH.
FIG. 2. Fluorescence responses of (a) 10 μM SF1 and (b) 10 μM SF2 to 100 μM H2S. […]

Molecules are shown by their SMILES.

Regarding `CC(C)(C)OC(=O)Nc1ccc2c(c1)Oc1cc(N=[N+]=[N-])ccc1C21OC(=O)c2ccccc21` (stereo not shown) [SF1, Sulfidefluor-1], the “absorption of the protected probe in the visible region” value in data set [1] is recorded as “no absorption features in the visible region”. Also, in data set [2], the “intracellular fluorescence intensity after NaSH” value is “patent increase in intracellular fluorescence intensity”, the “background response in untreated cells” value is on record as “little background response” and the “cell viability over the course of the experiments” value was “confirm the cell viability”. Besides, in data set [2] (live HEK293T cells), the cellular permeability result is listed as “exceptional cellular permeability”. Moreover, the “turn-on response (fluorescence)” value in data set [3] is reported as 7 fold.
As to `[N-]=[N+]=Nc1ccc2c(c1)Oc1cc(NC(=O)N3CCOCC3)ccc1C21OC(=O)c2ccccc21` (stereo not shown) [SF2, Sulfidefluor-2], the “absorption of the protected probe in the visible region” value in data set [1] was “no absorption features in the visible region”. In data set [2], the “intracellular fluorescence intensity after NaSH” value is “patent increase in intracellular fluorescence intensity”, the “background response in untreated cells” value is on record as “little background response” and the “cell viability over the course of the experiments” value is reported as “confirm the cell viability”. Moreover, in data set [2] (live HEK293T cells), the cellular permeability result was “exceptional cellular permeability” and the “staining of cellular nuclei” value is reported as “significant staining of the cellular nuclei”. Besides, the “turn-on response (fluorescence)” value in data set [3] was determined as 9 fold.
